Experimental data reported in patent publication EP1581471B9, “CYCLOPENTENONE DERIVATIVES FOR CANCER THERAPY” (Dabur Research Foundation, priority 2002, dated 2004).
Converted amounts (≈) assume the structure as drawn.

Legend:
293 = assay: three day MTT cytotoxicity assay; assay type: cell-based, human; details: 293 (kidney), 72 hours
Experimental: (§1) A number of the cyclopentenone derivatives were tested for cytotoxicity against 9 human tumor cell lines. Briefly, a three day MTT cytotoxicity assay was performed, which is based on the principle of uptake of MTT (3-(4,5-dimethylthiazol-2-yl)-2,5-diphenyl tetrazolium bromide), a tetrazolium salt, by the metabolically active cells where it is metabolized by active mitochondria into a blue colored formazan product that is read spectrophotometrically. MTT was dissolved in phosphate buffered saline with a pH of 7.4 to obtain an MTT concentration of 5mg/ml; the resulting mixture was filtered through a 0.22 micron filter to sterilize and remove a small amount of insoluble residue. For each type of tumor cell, 10000 to 15000 cells were seeded in a 96-well culture plate and incubated with the individual cyclopentenone derivatives in a CO2 incubator for a total of 72 hours. Control cells not treated with the cyclopentenone derivatives were similarly incubated. The assay was terminated by adding 100 ug (20 ul) of MTT to each well, then incubating for additional one hour, and finally adding 50 ul of 10% SDS-0.01N HCl to each well to lyse the cells and dissolve formazan. After incubating for one hour, the plate was read spectrophotometrically at 540 nm and the percentage of cytotoxicity calculated using the following formula: Cytotoxicity percentage = 100 × [1-(X/R1)], [formula] where X = (absorbance of treated sample at 540 nm) - (absorbance of blank at 540 nm) R1 = absorbance of control sample at 540 nm.
(§2) The ED50 Values of the cytotoxicity defined as the concentration at which 50 % of the cells are killed in vitro was calculated for each cell line treated with each of the cyclopentenone derivatives.
(§3) The cell lines are PTC (all colon), MOLT-4 (leukemia), SW620 […], DU145 (prostate), KB (oral squamous cell), L132 (lung), MIAPaCa2 (Pancreas), Hep2, (larynx), PA-1 (ovary), HuTu80 (duodenum), ECV 304 (endothelial), and 293 (kidney).

DU145 = assay: three day MTT cytotoxicity assay; assay type: cell-based, human; details: DU145 (prostate), 72 hours
Experimental: as §1, §2, §3

ECV 304 = assay: three day MTT cytotoxicity assay; assay type: cell-based, human; details: ECV 304 (endothelial), 72 hours
Experimental: as §1, §2, §3

Hep2 = assay: three day MTT cytotoxicity assay; assay type: cell-based, human; details: Hep2 (larynx), 72 hours
Experimental: as §1, §2, §3

HuTu80 = assay: three day MTT cytotoxicity assay; assay type: cell-based, human; details: HuTu80 (duodenum), 72 hours
Experimental: as §1, §2, §3

KB = assay: three day MTT cytotoxicity assay; assay type: cell-based, human; details: KB (oral squamous cell), 72 hours
Experimental: as §1, §2, §3

L132 = assay: three day MTT cytotoxicity assay; assay type: cell-based, human; details: L132 (lung), 72 hours
Experimental: as §1, §2, §3

MIAPaCa2 = assay: three day MTT cytotoxicity assay; assay type: cell-based, human; details: MIAPaCa2 (Pancreas), 72 hours
Experimental: as §1, §2, §3

MOLT-4 = assay: three day MTT cytotoxicity assay; assay type: cell-based, human; details: MOLT-4 (leukemia), 72 hours
Experimental: as §1, §2, §3

PA-1 = assay: three day MTT cytotoxicity assay; assay type: cell-based, human; details: PA-1 (ovary), 72 hours
Experimental: as §1, §2, §3

PTC = assay: three day MTT cytotoxicity assay; assay type: cell-based, human; details: PTC (colon), 72 hours
Experimental: as §1, §2, §3

SW620 = assay: three day MTT cytotoxicity assay; assay type: cell-based, human; details: 72 hours
Experimental: as §1, §2, §3

tubulin = tubulin polymerization in vitro (absorbance at 340 nm); assay type: biochemical; details: tubulin 1mg/ml, 37°C, pH 6.9; read-out: IC50 values (uM) for inhibition of Tubulin Polymerization
Experimental: The cyclopentenone derivatives were checked for their effects on tubulin polymerization in vitro. Briefly, the tubulin assembly reaction was performed at 37°C in buffer containing 80 mM PIPES, 1mM EGTA, 1.0 mM GTP and 1mM MgCl2 (pH 6.9) at a tubulin concentration of 1mg/ml in the presence or absence of the cyclopentenone derivatives. The final concentration of the cyclopentenone derivatives in the reaction mixture varied from 1-5uM. The derivatives were dissolved in 0.1% DMSO. The control experiments were carried out with 0.1% DMSO. The tubulin polymerization was followed by measurement of the absorbance of the solution at 340 nm every 30 seconds. […] Thus the cyclopentenone derivatives mediated their observed anticancer activities by tubulin depolymerization.

Caspase-3 = Caspase-3 induction in KB cells (colorimetric substrate DEVD-pNA); assay type: cell-based, Human; details: 5ug/ml
Experimental: Human squamous cell carcinoma (KB) were plated in a 25 cm^2 flask. When cultures achieved confluence, the cyclopentenone derivative of structure 20 was added to the cells. The final concentration of derivative of the structure 20 in the flask was 5ug/ml. The untreated wells served as controls. The cells were incubated with the drug for 2 different time points of 6 and 16 hours at 37°C. The cells were collected by centrifugation at 2000 r.p.m. for 10 minutes. The supernatant was gently removed and discarded while Lysis Buffer was added to the cell pellet (25ul of lysis buffer per […]). The cell lysate was incubated on ice for 10 minutes and centrifuged at 10,000-x g for 1 minute. The supernatant was transferred to a new tube and kept on ice. 50ul of the cell lysate was added in a 96 well plate. To this was added 2x Reaction Buffer. Prior to using reaction buffer, 10ul of fresh DTT stock per 1 ml of 2x Reaction Buffer was added. To each well 5ul of Caspase-3 colorimetric substrate (DEVD-pNA) was added. The plate was incubated for 1-2 hours at […]. and read at 405nm.
The level of caspase enzymatic activity in the cell lysate is directly proportional to the absorbance at 405nm. […]

VEGF = VEGF levels in ECV304 endothelial cells (ELISA); assay type: cell-based, Human; details: 5ug/ml, 4 hours
Experimental: Human endothelial cells (ECV304) were plated at the density of 8-10 x10^5 cells per 2 ml in a six well plate. After an overnight incubation of cells at 37°C, cyclopentenone derivatives at a concentration of 5ug/ml was added to the wells. The untreated wells served as controls. The plates were incubated for 4 hours at 37°C. The medium was collected from all the wells (control and treated) and spun down at 2000 r.p.m to remove the cellular material. The supernatant was collected and used for ELISA (Quantikine human VEGF, R&D Systems). The assay employs the quantitative sandwich enzyme immunoassay technique. A monoclonal antibody specific for VEGF has been pre-coated onto a microplate. Standards and samples were pipetted into the wells and VEGF present was bound by the immobilized antibody. After washing away the unbound substances, an enzyme-linked polyclonal antibody specific for VEGF was added to the wells. Following a wash to remove any unbound antibody-enzyme reagent, a substrate solution was added to the wells and color developed in proportion to the amount of VEGF bound in the initial step. The optical density of each well was determined within 30 minutes using a microplate reader set to 450nm and reference wavelength at 540nm. The VEGF levels were inhibited by the addition of cyclopentenone derivatives in vitro.

PTC tumor xenografts = assay: In vivo anti-tumor activity on PTC tumor xenografts; set-up: species or system Balb/c athymic mice; details: intravenously 0.5 mg/100 µL once a day for 14 days, day 23, compared to controls
Experimental: PTC tumor xenografts were grown in Balb/c athymic mice by subcutaneous inoculation of a single cell suspension of PTC cells (15 X 10^6 cells/100 µL). The tumor bearing animals were divided into 2 groups of three animals each including one group comprising untreated control animals. Treatment with compound of formula no. 49 was initiated when the average tumor volumes, as measured using a vernier caliper, were […]. Compound of formula no. 49 was administered intravenously to the assigned group of tumor bearing animals at a dose of 0.5 mg/100 µL once a day and the treatment was continued for a period of 14 days.
The antitumor activity of the compound was monitored by measuring tumor volumes every fourth day using the formula W*W*L*0.4 (W = smaller diameter, L = larger diameter). The percentage inhibition of tumor growth was calculated using the formula (1- tumor volume-treated / tumor volume-control) * 100. […] Compound of formula no. […] The percentage inhibition of tumor growth caused compound of formula no. 49 as compared to controls on day 23 was 45.8%.

SMILES | ED50 (ug/ml) 293 293 [µg/mL] | ED50 (ug/ml) DU145 (DU145) [µg/mL] | ED50 (ug/ml) ECV 304 (ECV 304) [µg/mL] | ED50 (ug/ml) Hep2 (Hep2) [µg/mL] | ED50 (ug/ml) HuTu80 (HuTu80) [µg/mL] | ED50 (ug/ml) KB (KB) [µg/mL] | ED50 (ug/ml) L132 (L132) [µg/mL] | ED50 (ug/ml) MiaPaca (MIAPaCa2) [µg/mL] | ED50 (ug/ml) MOLT4 (MOLT-4) [µg/mL] | ED50 (ug/ml) PA1 (PA-1) [µg/mL] | ED50 (ug/ml) PTC (PTC) [µg/mL] | ED50 (ug/ml) SW620 (SW620; SW620 (colon)) [µg/mL] | IC50 (tubulin) [µM] | Percent Induction of Caspase-3 6 hours (Caspase-3) [%] | Percent Induction of Caspase-3 16 hours (Caspase-3) [%] | Percent Reduction in VEGF (VEGF) [%] | ED50 (ug/ml) SW620 (SW620; SW620 (ovary)) [µg/mL] | percentage inhibition of tumor growth (PTC tumor xenografts) [%]
COc1ccc(C2=C(c3cc(OC)c(OC)c(OC)c3)C(=O)CC2O)cc1O (stereo not shown) [Compound 39] | >100 | 8 ± 1.5 (≈ 20.7 µM) | >100 | <1 | 1.5 ± 0.1 (≈ 3.88 µM) | <1 | <1 | >100 | 62.5 ± 5.0 (≈ 162 µM) | <1 | 78 ± 4.0 (≈ 202 µM) | <1 | 1.4 ± 0.6 | 12.8 ± 0.2 | 17.0 ± 1.5 | 21.9 ± 1.5 | – | –
COc1ccc(C2=C(c3cc(OC)c(OC)c(OC)c3)C(=NO)C(O)C2)cc1 (stereo not shown) [Compound 49] | – | >100 | >100 | <1.0 | – | <1.0 | < 1.0 | 24 ± 3.5 (≈ 62.3 µM) | <1.0 | <1.0 | <1.0 | – | 2.3 ± 0.5 | 26.7 ± 2.8 | 31.9 ± 3.2 | 38.6 ± 1.9 | <1.0 | 45.8
